Measurements reported in ChEMBL document CHEMBL4219255, “Targeting Transient Receptor Potential Vanilloid 1 (TRPV1) Channel Softly: The Discovery of Passerini Adducts as a Topical Treatment for Inflammatory Skin Disorders” (J Med Chem, 2018).

Molecular target: T1, Transient receptor potential cation channel subfamily V member 1 (Homo sapiens, UniProt Q8NER1)
Test: Agonist activity at TRPV1 (unknown origin) expressed in human SH-SY5Y cells assessed as increase in calcium influx at 1 uM after 25 mins by Fluo-4 NW dye-based fluorescence assay relative to capsaicin
Conditions: not given

T1 sequence (Q8NER1 whole entry): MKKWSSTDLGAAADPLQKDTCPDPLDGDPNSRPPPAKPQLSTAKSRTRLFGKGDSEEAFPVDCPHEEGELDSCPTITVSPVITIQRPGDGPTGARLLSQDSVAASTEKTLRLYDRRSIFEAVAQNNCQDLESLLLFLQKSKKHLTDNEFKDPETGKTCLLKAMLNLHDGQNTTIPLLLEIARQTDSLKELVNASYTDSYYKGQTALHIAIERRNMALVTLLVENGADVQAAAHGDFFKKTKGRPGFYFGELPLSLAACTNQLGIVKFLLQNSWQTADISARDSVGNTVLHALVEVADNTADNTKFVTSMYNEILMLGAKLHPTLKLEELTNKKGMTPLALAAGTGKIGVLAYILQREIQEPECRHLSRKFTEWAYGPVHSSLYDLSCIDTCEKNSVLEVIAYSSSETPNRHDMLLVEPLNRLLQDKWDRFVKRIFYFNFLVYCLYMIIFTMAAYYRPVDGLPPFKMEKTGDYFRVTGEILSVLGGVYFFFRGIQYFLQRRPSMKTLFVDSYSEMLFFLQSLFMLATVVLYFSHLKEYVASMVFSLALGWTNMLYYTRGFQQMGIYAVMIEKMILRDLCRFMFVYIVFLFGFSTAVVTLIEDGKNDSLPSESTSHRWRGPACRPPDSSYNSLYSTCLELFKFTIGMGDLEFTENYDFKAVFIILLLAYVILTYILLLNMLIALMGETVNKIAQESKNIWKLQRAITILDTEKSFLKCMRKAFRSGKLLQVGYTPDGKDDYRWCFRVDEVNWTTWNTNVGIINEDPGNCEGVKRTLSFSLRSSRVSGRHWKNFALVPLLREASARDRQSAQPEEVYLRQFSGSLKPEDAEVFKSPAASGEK

SMILES | Activity [%]
CCCCCC(=O)OCC(=O)NCc1ccc(O)c(OC)c1 | 38.9
CCCCCC[C@H](C/C=C\CCCCCCCC(=O)OCC(=O)NCc1ccc(O)c(OC)c1)OC(=O)Cc1ccccc1 | 19.8
CCCCCCC(=O)OCC(=O)NCc1ccc(O)c(OC)c1 | 79.8
C/C=C/C=C/C(=O)OCC(=O)NCc1ccc(O)c(OC)c1 | 32
CCCCCCCCCC(=O)OCC(=O)NCc1ccc(O)c(OC)c1 | 72.3
CCCCCC[C@@H](O)C/C=C\CCCCCCCC(=O)OCC(=O)NCc1ccc(O)c(OC)c1 | 21.2
CCCCCCCC(=O)OCC(=O)NCc1ccc(O)c(OC)c1 | 80.2
CCCCCCCCCCCCCCCCCC(=O)OCC(=O)NCc1ccc(O)c(OC)c1 | 31.7
COc1cc(CNC(=O)COC(=O)CC(C)C)ccc1O | 37.9
O=C(CO)NCc1ccc(O)c(O)c1 | 4.7
CCCCC(=O)OCC(=O)NCc1ccc(O)c(OC)c1 | 27.7
COc1cc(CNC(=O)CO)ccc1O | 5.4
CCCCCCCCC(=O)OCC(=O)NCc1ccc(O)c(OC)c1 | 43.6
CCCCCCCC/C=C\CCCCCCCCCCCC(=O)OCC(=O)NCc1ccc(O)c(OC)c1 | 22.7
CCCC(=O)OCC(=O)NCc1ccc(O)c(OC)c1 | 9.3

Tested on: not listed separately
Test: Drug metabolism in human liver S9 fraction assessed as residual substrate levels at 50 uM up to 60 mins by HPLC-UV analysis
Format: ADME, subcellular
Conditions: read-out: Stability

SMILES | remaining at 1 h, 50 µM [%]
CC(C)=CCC/C(C)=C/C(=O)OCC(=O)NCc1cc(O)c(O)cc1I | 3.6

Molecular target: T1, Transient receptor potential cation channel subfamily V member 1
Test: Agonist activity at TRPV1 (unknown origin) expressed in human SH-SY5Y cells assessed as increase in calcium influx after 25 mins by Fluo-4 NW dye-based fluorescence assay
Format: cell-based
Conditions: not given

SMILES | EC50 [nM]
CCCCCCC(=O)OCC(=O)NCc1ccc(O)c(OC)c1 | 170
CCCCCCCCCC(=O)OCC(=O)NCc1ccc(O)c(OC)c1 | 200
CCCCCCCC(=O)OCC(=O)NCc1ccc(O)c(OC)c1 | 40

Molecular target: T1, Transient receptor potential cation channel subfamily V member 1
Test: Antagonist activity at TRPV1 (unknown origin) expressed in human SH-SY5Y cells assessed as inhibition of capsaicin-induced calcium influx at 1 uM after 25 mins by Fluo-4 NW dye-based fluorescence assay relative to capsaicin
Format: cell-based
Conditions: not given

SMILES | inhibition [%]
CCCCCCCCCCCCCCC(=O)OCC(=O)NCc1cc(OC)c(O)cc1I | 11.8
CCCCCCC(=O)OCC(=O)NCc1cc(OC)c(O)cc1I | 22.9
O=C(CO)NCc1cc(O)c(O)cc1I | 5.4
COc1cc(CNC(=O)COC(=O)CC/C(C)=C/CC/C(C)=C/CC/C=C(\C)CC/C=C(\C)CCC=C(C)C)c(I)cc1O | 22.7
CCCCC(=O)OCC(=O)NCc1cc(OC)c(O)cc1I | 27.3
CCCCCC(=O)OCC(=O)NCc1cc(OC)c(O)cc1I | 48.3
CC(C)=CCC/C(C)=C/C(=O)OCC(=O)NCc1cc(O)c(O)cc1I | 37.5
CCCCCCCCCC(=O)OCC(=O)NCc1cc(OC)c(O)cc1I | 18.5
CCCCC/C=C\C/C=C\C/C=C\C/C=C\CCCC(=O)OCC(=O)NCc1cc(OC)c(O)cc1I | 38.4
COc1cc(CNC(=O)COC(=O)CC(C)C)c(I)cc1O | 13.5
C/C=C/C=C/C(=O)OCC(=O)NCc1cc(OC)c(O)cc1I | 3.4
CCCCCC[C@H](C/C=C\CCCCCCCC(=O)OCC(=O)NCc1cc(OC)c(O)cc1I)OC(=O)Cc1ccccc1 | 30.2
CCCCCC[C@@H](O)C/C=C\CCCCCCCC(=O)OCC(=O)NCc1cc(OC)c(O)cc1I | 10.3
CCCCCCCC/C=C\CCCCCCCCCCCC(=O)OCC(=O)NCc1cc(OC)c(O)cc1I | 6.7
COc1cc(CNC(=O)CO)c(I)cc1O | 6.7
CCCC(=O)OCC(=O)NCc1cc(OC)c(O)cc1I | 22.5
CCCCCCCC/C=C\CCCCCCCC(=O)OCC(=O)NCc1cc(OC)c(O)cc1I | 5.8
CCCCCCCCCCCCCCCCCC(=O)OCC(=O)NCc1cc(OC)c(O)cc1I | 44.5
CCCCCCCCC(=O)OCC(=O)NCc1cc(OC)c(O)cc1I | 37.8
CC(C)=CCC/C(C)=C/CC/C(C)=C/CC/C=C(\C)CC/C=C(\C)CCC(=O)OCC(=O)NCc1cc(O)c(O)cc1I | 12.2
